Test results: patent US20110092544A1, “FUNGICIDAL PYRIDINES” (E.I. DU PONT DE nemours and company, priority 2008, published 2011)

What was measured:
[1] = test system: Puccinia recondite f. sp. tritici; assay: Test B: wheat leaf rust, preventive spray on wheat seedlings, visual disease rating; format: in vivo; conditions: for pest or weed control at 200 ppm / pest or weed control at 40 ppm: 192 h; for pest or weed control at 200 ppm / Test B rating (% disease control): 100 = 100% disease control, 0 = no control, 200 ppm; for pest or weed control at 40 ppm: 40 ppm (compound number followed by *)
Method in brief: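 Wheat seedlings were sprayed to run-off with compound suspension, 200 ppm (≈500 g/ha) or 40 ppm where marked, containing surfactant in acetone/water. Inoculation with Puccinia recondita spores followed one day later, then 24 h in saturated humidity at 20° C and 7 days at 20° C. Disease control was rated visually, 0–100% versus controls.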

Alternaria solani = assay: Test E: tomato early blight, preventive spray on tomato seedlings, visual disease rating; format: in vivo; conditions: for pest or weed control at 200 ppm / pest or weed control at 40 ppm: Alternaria solani, 168 h; for pest or weed control at 200 ppm / Test E rating (% disease control): 100 = 100% disease control, 0 = no control, 200 ppm; for pest or weed control at 40 ppm: 40 ppm (compound number followed by *)
Method in brief: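 Seedlings sprayed to run-off with compound in acetone/water plus 250 ppm Trem 014 (200 ppm ≈ 500 g/ha), inoculated with spores next day. Held 48 h saturated at 27 °C, then 5 days at 20 °C; visual rating 0–100% disease control relative to controls.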

[2] = test system: Erysiphe graminis f. sp. tritici; assay: Test A: wheat powdery mildew, preventive spray on wheat seedlings, visual disease rating; format: in vivo; conditions: for pest or weed control at 200 ppm / pest or weed control at 40 ppm: Blumeria graminis, 192 h; for pest or weed control at 200 ppm / Test A rating (% disease control): 100 = 100% disease control, 0 = no control, 200 ppm; for pest or weed control at 40 ppm: 40 ppm (compound number followed by *)
Method in brief: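 Acetone/water (50/50) suspension with 250 ppm surfactant sprayed to run-off on wheat seedlings (200 ppm ≈ 500 g/ha); inoculated next day with E. graminis spore dust. Incubated 8 days at 20° C, then visually rated 0–100% disease control versus untreated controls; tests at 200 ppm or 40 ppm.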

Rhizoctonia oryzae = assay: Test G: turf brown patch, preventive spray on creeping bent grass seedlings, visual disease rating; format: in vivo; conditions: 200 ppm, 100 = 100% disease control, 0 = no control; for pest or weed control at 200 ppm: Waitea circinata, in Agrostis stolonifera, 120 h
From the text: General protocol for preparing test suspensions for Tests A-H: The test compounds were first dissolved in acetone in an amount equal to 3% of the final volume and then suspended at the desired concentration (in ppm) in acetone and purified water (50/50 mix) containing 250 ppm of the surfactant Trem® 014 (polyhydric alcohol esters). The resulting test suspensions were then used in tests A-H. Spraying a 200 ppm test suspension to the point of run-off on the test plants was the equivalent of a rate of 500 g/ha.
The test suspension was sprayed to the point of run-off on creeping bent grass seedlings. The following day the seedlings were inoculated with a spore suspension of Rhizoctonia oryzae (the causal agent of turf brown patch) and incubated in a saturated atmosphere at 27° C. for 48 h, and then moved to a growth chamber at 27° C. for 3 days, after which time disease ratings were visually made.
Results for Tests A-H are given in Table A. In the table, a rating of 100 indicates 100% disease control and a rating of 0 indicates no disease control (relative to the controls). A dash (-) indicates no test results. All results are for compounds tested at 200 ppm except where the compound number is followed by “*” which indicates the compound was tested at 40 ppm.

Septoria nodorum = assay: Test D: wheat glume blotch, preventive spray on wheat seedlings, visual disease rating; format: in vivo; conditions: for pest or weed control at 200 ppm / pest or weed control at 40 ppm: Parastagonospora nodorum, 216 h; for pest or weed control at 200 ppm / Test D rating (% disease control): 100 = 100% disease control, 0 = no control, 200 ppm; for pest or weed control at 40 ppm: 40 ppm (compound number followed by *)
Method in brief: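 Compounds in 3% acetone, then 50/50 acetone–water with 250 ppm Trem 014, sprayed to run-off at 200 ppm (500 g/ha; some at 40 ppm) one day before spore inoculation. Held 48 h saturated at 20 °C, then 7 days at 20 °C; visual rating as % disease control vs untreated (0–100).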

Septoria tritici = assay: Test C: wheat leaf blotch, preventive spray on wheat seedlings, visual disease rating; format: in vivo; conditions: for pest or weed control at 200 ppm / pest or weed control at 40 ppm: Zymoseptoria tritici, 504 h; for pest or weed control at 200 ppm / Test C rating (% disease control): 100 = 100% disease control, 0 = no control, 200 ppm; for pest or weed control at 40 ppm: 40 ppm (compound number followed by *)
Method in brief: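 Wheat seedlings sprayed to run-off with compound in acetone/water plus 250 ppm surfactant at 200 ppm (≈500 g/ha), or 40 ppm where marked; inoculated with Septoria tritici next day. Held saturated at 20 °C for 48 h, then 19 days at 20 °C; disease control rated visually 0–100 versus controls.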

Plasmopara viticola = assay: Test H: grape downy mildew, spray after inoculation of grape seedlings, visual disease rating; format: in vivo; conditions: 200 ppm, 100 = 100% disease control, 0 = no control; for pest or weed control at 200 ppm: Plasmopara viticola, 192 h
Botrytis cinerea = assay: Test F: tomato botrytis, preventive spray on tomato seedlings, visual disease rating; format: in vivo; conditions: for pest or weed control at 200 ppm / pest or weed control at 40 ppm: Botrytis cinerea, 120 h; for pest or weed control at 200 ppm / Test F rating (% disease control): 100 = 100% disease control, 0 = no control, 200 ppm; for pest or weed control at 40 ppm: 40 ppm (compound number followed by *)
Method in brief: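 Tomato seedlings sprayed to run-off with compound suspended in acetone/water (50/50) plus 250 ppm Trem 014, at 200 ppm (≈500 g/ha) or 40 ppm where marked. Inoculated next day with B. cinerea spores, 48 h saturated atmosphere at 20 °C, then 3 days at 24 °C. Visual rating, 0–100% disease control relative to controls.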

Row | SMILES | pest or weed control at 200 ppm [1] | pest or weed control at 200 ppm (Alternaria solani) | pest or weed control at 200 ppm [2] | pest or weed control at 200 ppm (Septoria nodorum) | pest or weed control at 200 ppm (Septoria tritici) | pest or weed control at 200 ppm (Botrytis cinerea) | Test B rating (% disease control) [1] | Test E rating (% disease control) (Alternaria solani) | Test A rating (% disease control) [2] | Test G rating (% disease control) (Rhizoctonia oryzae) | Test D rating (% disease control) (Septoria nodorum) | Test C rating (% disease control) (Septoria tritici) | Test H rating (% disease control) (Plasmopara viticola) | Test F rating (% disease control) (Botrytis cinerea) | melting point | further results
1 | COc1cc(OC)cc(-c2c(-c3ccccc3)cnc(C)c2-c2ccc(F)cc2)c1 [Compound 34, 4-(3,5-dimethoxyphenyl)-3-(4-fluorophenyl)-5-phenyl-2-methylpyridine] | 96% | 96% | 96% | 77% | 100% | 99% |  |  |  |  |  |  |  |  |  | pest or weed control at 200 ppm (Rhizoctonia oryzae): 63%; pest or weed control at 200 ppm (Plasmopara viticola): 0%
2 | COc1cc(OC)cc(-c2c(-c3ccccc3F)cnc(C)c2-c2ccc(F)cc2)c1 [Compound 35] |  |  |  |  |  |  | 100% | 99% | 99% | 99% | 99% | 99% | 0% | 99% |  | 
3 | COc1cc(OC)cc(-c2c(-c3ccc(F)cc3)cnc(C)c2-c2ccccc2)c1 [Compound 36] |  |  |  |  |  |  | 0% | 30% | 65% | 14% | 0% | 93% | 0% | 94% |  | 
4 | COc1cc(OC)cc(-c2c(-c3ccc(F)cc3F)cnc(C)c2-c2ccc(F)cc2)c1 [Compound 38] |  |  |  |  |  |  | 80% | 87% | 95% | 56% | 0% | 100% | 0% | 98% |  | 
5 | COc1cc(OC)cc(-c2c(-c3ccccc3F)c[n+]([O-])c(C)c2-c2ccc(F)cc2)c1 [Compound 39, 4-(3,5-dimethoxyphenyl)-5-(2-fluorophenyl)-3-(4-fluorophenyl)-2-methylpyridine 1-oxide] | 100% | 100% | 98% | 100% | 100% | 94% |  |  |  |  |  |  |  |  |  | pest or weed control at 200 ppm (Rhizoctonia oryzae): 35%; pest or weed control at 200 ppm (Plasmopara viticola): 0%
6 | COc1cc(OC)cc(-c2c(C(C)=O)cnc(C)c2-c2c(F)cc(F)cc2F)c1 [Compound 40, 1-[4-(3,5-dimethoxyphenyl)-6-methyl-5-(2,4,6-trifluorophenyl)-3-pyridinyl]ethanone] | 80% | 97% | 94% | 0% | 87% | 90% |  |  |  |  |  |  |  |  |  | pest or weed control at 200 ppm (Rhizoctonia oryzae): 49%; pest or weed control at 200 ppm (Plasmopara viticola): 0%
7 | COc1cc(OC)cc(-c2c(C(C)=O)cnc(C)c2-c2c(F)cccc2F)c1 [Compound 41] |  |  |  |  |  |  | 98% | 99% | 100% | 99% | 0% | 99% | 0% | 98% |  | 
8 | COc1cc(OC)cc(-c2c(-c3ccccc3F)cnc(C)c2-c2c(F)cc(F)cc2F)c1 [Compound 89, 4-(3,5-dimethoxyphenyl)-5-(2-fluorophenyl)-2-methyl-3-(2,4,6-trifluorophenyl)pyridine] |  |  |  |  |  |  |  |  |  |  |  |  |  |  | 123 to 127 °C | pest or weed control at 40 ppm [1]: 100%; pest or weed control at 40 ppm (Alternaria solani): 99%; pest or weed control at 40 ppm [2]: 100%; pest or weed control at 40 ppm (Septoria nodorum): 99%; pest or weed control at 40 ppm (Septoria tritici): 97%; pest or weed control at 40 ppm (Botrytis cinerea): 100%
9 | COc1cc(OC)cc(-c2c(CCl)cnc(C)c2-c2c(F)cc(F)cc2F)c1 [Compound 110, 5-(chloromethyl)-4-(3,5-dimethoxyphenyl)-2-methyl-3-(2,4,6-trifluorophenyl)pyridine] | 100% | 100% | 100% | 87% | 96% | 99% |  |  |  |  |  |  |  |  | 110 to 115 °C | 
10 | COc1cc(OC)cc(-c2c(CC#N)cnc(C)c2-c2c(F)cc(F)cc2F)c1 [Compound 124, 4-(3,5-dimethoxyphenyl)-6-methyl-5-(2,4,6-trifluorophenyl)-3-pyridineacetonitrile] |  |  |  |  |  |  |  |  |  |  |  |  |  |  | 131 to 133 °C | pest or weed control at 40 ppm [1]: 100%; pest or weed control at 40 ppm (Alternaria solani): 100%; pest or weed control at 40 ppm [2]: 100%; pest or weed control at 40 ppm (Septoria nodorum): 100%; pest or weed control at 40 ppm (Septoria tritici): 99%; pest or weed control at 40 ppm (Botrytis cinerea): 100%
11 | CCOC(=O)c1cnc(C)c(-c2c(F)cc(F)cc2F)c1-c1cc(OC)cc(OC)c1 [Compound 130, ethyl 4-(3,5-dimethoxyphenyl)-6-methyl-5-(2,4,6-trifluorophenyl)-3-pyridinecarboxylate] | 93% | 99% | 100% | 0% |  | 100% |  |  |  |  |  |  |  |  | 93 to 95 °C | 
12 | COc1cc(OC)c(Cl)c(-c2c(CC#N)cnc(C)c2-c2c(F)cc(F)cc2F)c1 [Compound 133, 4-(2-chloro-3,5-dimethoxyphenyl)-6-methyl-5-(2,4,6-trifluorophenyl)-3-pyridineacetonitrile] |  |  |  |  |  |  |  |  |  |  |  |  |  |  | 159 to 165 °C | pest or weed control at 40 ppm [1]: 100%; pest or weed control at 40 ppm (Alternaria solani): 99%; pest or weed control at 40 ppm [2]: 98%; pest or weed control at 40 ppm (Septoria nodorum): 95%; pest or weed control at 40 ppm (Septoria tritici): 100%; pest or weed control at 40 ppm (Botrytis cinerea): 100%
